According to patent US11723947B2, “Anti-senescence compounds and uses thereof” (Erasmus University Medical Center Rotterdam, priority 2015, dated 2023):
Peptide text beside a SMILES is read from it. * marks the point of attachment. Cbz = O=C(OCc1ccccc1)*; CH2F = FC*

Key:
[1] = system: Senescent and control IMR90; settings: for effect on effectiveness of FOXO4 DRI in lowering senescent cell viability: viability measured one day earlier; for effect of pan-caspase inhibitor on the FOXO4 DRI effect on senescent cell viability: 20 μM inhibitor, 25 μM FOXO4 DRI, senescent IMR90, 6 days
Procedure: The selectivity index (S.I.) for the EC50 values was determined after […] (GraphPad Prism) of the curves. […] Real-time cell density was measured using an xCELLigence detection system (ACEA Biosciences). Prior to the start of the measurement 50 μL DMEM 10% FCS was added to each well of an E-plate view 16 (Roche) to determine background signal. Non-senescent (2000 cells per well) and senescent (5000 cells/well) IMR90 fibroblasts were then plated in 150 μl medium. 16 hours later the E-plate was placed in the xCELLigence reader and the cell density was recorded every 30 minutes. […] Measurements continued for the indicated time-points. […] Experiment as in FIG. 2C, but with the indicated peptides. […] Cells were plated in 4-well Poly-L-Lysine coated glass bottom 35 mm dishes (D141410; Matsumi, Japan) and incubated with NucView488 Caspase-3 (4440; Essen Bioscience). […] 8h after addition the real-time imaging was initiated and every 30 min a grid of 3×3 pictures was imaged. The imaging continued for another 6 days and the images were concatenated using Zen imaging software. […] After 6 days cell viability was determined as in FIG. 2C). […] Experiment as in FIG. 2C, but according to the indicated treatment plan. Instead of one single dose, three doses were given (one day in between) of ⅓ that concentration each time. […] Left: Experiment as in FIG. 2C, but on cells pretreated once daily for two days with IL-1α Receptor Antagonist (RA), which blocks IL-1α/β signaling, recombinant IL-6 and recombinant IL-1α/β. […] Right: Similar experiment as in the left panel, except viability measured one day earlier. […] In senescent cells p53 signaling causes upregulation of the cell-cycle arrest and pro-survival protein p21Cip1. […] Experiment as in FIG. 2K. […] Experiment as in FIG. 2c, but with control and senescent IMR90 stable transduced with shRNAs against p53 or a control shRNA (shGFP).
A) Control IMR90 and IMR90 induced to senesce through 10Gy IR were plated in triplicate for each condition in a 96-well plate. […] After 6 days viability was determined through AqeousOne celltiter assay (Promega) according to the manufacturer's instructions.
Non-senescent (=“normal”, proliferating) IMR90 cells (ATCC #CCL-186, a diploid primary human fibroblast adherent cell line derived from fetal lung tissue) were irradiated with 10Gy Gamma-IR (IR=irradiation). After 7 days these cells are senescent and can be used for experiments comparing them to their non-irradiated (=non-senescent) counterparts. Senescent and non-senescent IMR90 fibroblasts were plated for longitudinal cell density measurement using the xCELLigence system (ACEA Biosciences, Inc., San Diego, Calif.).
(§1) 5000 senescent (obtained as described above) and 2000 non-senescent IMR90 fibroblasts were plated in 96-well plates incubated with concentrations of NQDI between 0-20 μM and after 6 days cell viability was determined by AqueousOne CellTiter (MTT) assay according to the manufacturer's instructions.
as §1, with “R406, ranging from 16, 32, 64 to 128 nM” for “NQDI between 0-20 μM”
Normal human IMR90 fibroblasts were exposed to 10 Gy Ionizing Radiation or treated 3× (bidaily) with 0.5 μM Doxorubicin. Seven days later they were processed for SA-β-Gal staining to visualize senescent cells. […] DAPI was used as a counterstain to visualize nuclei. […] After 6 days the cell viability was determined using an AqueousOne Celltiter (MTT) assay according to the manufacturer's instructions.

[2] = system: Doxorubicin-treated mice; assay: Doxorubicin-treated mice: liver sections, body weight, plasma ASAT and Amylase; assay type: in vivo
Procedure: IMR90 cells were exposed twice to 0.5 μM Doxorubicin with one day in between. SA-β-GAL activity was determined 7 days later. […] Mice were i.p. injected with 10 mg/kg Doxorubicin and analyzed for RLUC on the indicated time-points. Changes in RLUC intensity for 5 animals are plotted for the indicated timepoints after injection. […] Mice treated as indicated in FIG. 4F were analyzed for Bioluminescence. […] Liver sections from the experiment in FIG. 4I were stained for IL-6. […] The ratio was plotted. […] Experiment as in FIG. 4H. n=3 animals per group.

[3] = system: IMR90 cells; assay: Senescence markers in Doxorubicin-treated IMR90 in vitro; assay type: cell-based, human
Procedure: IMR90 cells were exposed twice to 0.5 μM Doxorubicin with one day in between. SA-β-GAL activity was determined 7 days later. […] This figure complements FIG. 4A+B by showing that next to the senescence markers SA-β-Gal and p16^ink4a also the SASP marker IL-6 is elevated by Doxorubicin. […] Mice were i.p. injected with 10 mg/kg Doxorubicin and analyzed for RLUC on the indicated time-points. Changes in RLUC intensity for 5 animals are plotted for the indicated timepoints after injection. […] Following one dose of Doxorubicin (10 mg/kg, i.p.) the mice were treated with FOXO4 DRI (n=6; 4×10 mg/kg i.v.) or PBS (n=4; 4× Mock) and processed for RLUC imaging after 14 d. […] Mice treated as indicated in FIG. 4F were analyzed for Bioluminescence. […] H) To improve the window for measuring healthspan changes, the treatment regime from FIG. 4F) was extended with one additional dose of Doxorubicin and milder FOXO4 DRI treatment. Following two doses of Doxorubicin (both 10 mg/kg i.p.) the mice (n=3 each group) were subsequentially treated with PBS or FOXO4 DRI (3×5 mg/kg, 1 d in between) and 14 d later analyzed for changes in healthspan. […] Post-mortem analysis of liver sections from mice (n=2 each group) treated as in FIG. 4H and stained for FOXO4. The number of FOXO4 foci was objectively quantified using ImageJ. […] Liver sections from the experiment in FIG. 4I were stained for IL-6. […] Mice treated as depicted in FIG. 4H (n=9 for PBS, n=11 for FOXO4 DRI) were analyzed for total body weight before and after Doxorubicin-exposure followed by treatment with PBS or FOXO4 DRI. The ratio was plotted. […] Experiment as in FIG. 4H. n=3 animals per group.
DAPI was used as a counterstain to visualize nuclei. […] The histograms show % viability for the indicated conditions (.

[4] = system: p16^ink4a-positive senescence; assay: Doxorubicin-induced senescence in p16::3MR mice (RLUC bioluminescence, SA-beta-GAL); assay type: in vivo, mouse
Procedure: IMR90 cells were exposed twice to 0.5 μM Doxorubicin with one day in between. SA-β-GAL activity was determined 7 days later. […] This figure complements FIG. 4A+B by showing that next to the senescence markers SA-β-Gal and p16^ink4a also the SASP marker IL-6 is elevated by Doxorubicin. […] Mice were i.p. injected with 10 mg/kg Doxorubicin and analyzed for RLUC on the indicated time-points. Changes in RLUC intensity for 5 animals are plotted for the indicated timepoints after injection. […] Following one dose of Doxorubicin (10 mg/kg, i.p.) the mice were treated with FOXO4 DRI (n=6; 4×10 mg/kg i.v.) or PBS (n=4; 4× Mock) and processed for RLUC imaging after 14 d. […] Mice treated as indicated in FIG. 4F were analyzed for Bioluminescence. […] H) To improve the window for measuring healthspan changes, the treatment regime from FIG. 4F) was extended with one additional dose of Doxorubicin and milder FOXO4 DRI treatment. Following two doses of Doxorubicin (both 10 mg/kg i.p.) the mice (n=3 each group) were subsequentially treated with PBS or FOXO4 DRI (3×5 mg/kg, 1 d in between) and 14 d later analyzed for changes in healthspan. […] Post-mortem analysis of liver sections from mice (n=2 each group) treated as in FIG. 4H and stained for FOXO4. The number of FOXO4 foci was objectively quantified using ImageJ. […] Mice treated as depicted in FIG. 4H (n=9 for PBS, n=11 for FOXO4 DRI) were analyzed for total body weight before and after Doxorubicin-exposure followed by treatment with PBS or FOXO4 DRI. […]
Our senescence-detection model makes use of a construct in which the promoter of p16^ink4a drives a so-called trimodality reporter (3MR) referred to as p16::3MR. […] RLUC and RFP allow visualization of senescent cells in real-time through bioluminescence and fluorescence, respectively. […] On day 0, p16::3MR mice (Demaria et al., Developmental Cell, 31:6 p. 722-733 (2014)) including the Supplemental Experimental procedures) were i.p. injected with 10 mg/kg Doxorubicin and RLUC activity as measure of senescence was determined on the indicated timepoints. […]

CN(C)CC[C@H](CSc1ccccc1)Nc1ccc(S(=O)(=O)NC(=O)c2ccc(N3CCN(Cc4ccccc4-c4ccc(Cl)cc4)CC3)cc2)cc1[N+](=O)[O-] [ABT-737]
toxicity to non-senescent cells [1]: proved to be toxic to non-senescent cells
killing/clearing of senescent cells ([1]; 3× at ⅓, 3 days in between, senescence by IR): only showed limited effectiveness on killing senescent cells

C[C@]12CCC(=O)C=C1CC[C@@H]1[C@@H]2[C@@H](O)C[C@@]2(C)[C@H]1CC[C@]2(O)C(=O)CO [Cortisol]
effect on effectiveness of FOXO4 DRI in lowering senescent cell viability [1]: reduce the effectiveness of FOXO4 DRI in lowering senescent cell viability

COc1cccc2c1C(=O)c1c(O)c3c(c(O)c1C2=O)C[C@@](O)(C(=O)CO)C[C@@H]3O[C@H]1C[C@H](N)[C@H](O)[C@H](C)O1 [Doxorubicin]
organ toxicity (liver, pancreas) ([2]; mouse, in vivo, ip, 10 mg/kg): caused organ toxicity
total body weight ([2]; two doses 10 mg/kg i.p., mice): causes a drop in body weight
SA-β-GAL expression ([3]; IMR90, twice 0.5 μM, 7 days later): induces SA-β-GAL expression in IMR90 cells in vitro
IL-6 (SASP marker) ([3]; IMR90 in vitro): induces IL-6, indicative of elevated SASP
expression of p16^ink4a and FOXO4 ([3]; IMR90 in vitro): induces expression of p 16^ink4a and FOXO4 in IMR90 in vitro
induction of senescence in vivo (RLUC) ([4]; 10 mg/kg i.p., p16::3MR mice): induces p16^ink4a-mediated senescence in vivo

CC(C)[C@H](NC(=O)c1ccc2ccccc2n1)C(=O)N[C@@H](CC(=O)O)C(=O)COc1c(F)cccc1F [QVD-OPH]
effect of pan-caspase inhibitor on the FOXO4 DRI effect on senescent cell viability [1]: potently blocked the effect of FOXO4 DRI to reduce senescent cell viability

O=c1c(O)c(-c2ccc(O)c(O)c2)oc2cc(O)cc(O)c12 [Quesrcetin]
clearing of senescent IMR90, viability senescent vs non-senescent ([1]; Quesrcetin alone): inefficent towards clearing senescent IMR90

COc1cc(Nc2ncc(F)c(Nc3ccc4c(n3)NC(=O)C(C)(C)O4)n2)cc(OC)c1OC [R406, 6-(5-fluoro-2-(3,4,5-trimethoxyphenylamino)pyrimidin-4-ylamino)-2,2-dimethyl-2H-pyrido[3,2-b][1,4] oxazin-3 (4H)-one benzenesulfonate]
% viability over Mock, senescent and non-senescent IMR90 ([1]; 16, 32, 64 to 128 nM, 6 days): selectively reduces senescent cell viability
SA-beta-GAL deposits in kidneys ([4]; Doxorubicin 10 mg/kg i.p. day 0, once daily i.v. day 11-14): reduced SA-beta-GAL deposits in kidneys
Doxorubicin-induced senescence in vivo (bioluminescence) ([4]; Doxorubicin 10 mg/kg i.p. day 0, once daily i.v. day 11-14, imaging day 11 and day 21): repress Doxorubicin-induced senescence in vivo

COC(=O)C[C@H](NC(=O)[C@H](C)NC(=O)[C@@H](NC(=O)OCc1ccccc1)C(C)C)C(=O)CF [ZVAD-FMK] (Cbz-Val-Ala-Asp(OMe)-CH2F)
effect of pan-caspase inhibitor on the FOXO4 DRI effect on senescent cell viability [1]: potently blocked the effect of FOXO4 DRI to reduce senescent cell viability

IL-1RA: IL-1α Receptor Antagonist, which blocks IL-1α/β signaling
effect of pretreatment on effectiveness of FOXO4 DRI for killing senescent cells ([1]; pretreated once daily for two days, FOXO4 DRI 12.5 μM): reduced the effectiveness of FOXO4 DRI

Lipopolysaccharide
effect on effectiveness of FOXO4 DRI in lowering senescent cell viability [1]: improves it
